Non-standard residues stand in square brackets, D forms with d. Residues, ends and D or L forms follow the SMILES beside them. ξ: configuration not given here. *: point of attachment. 1Nal = N[C@@H](Cc1cccc2ccccc12)C(=O)O; 2Nal = N[CH](Cc1ccc2ccccc2c1)C(=O)O; Cha = N[C@@H](CC1CCCCC1)C(=O)O; Ile(3ξ) = CCC(C)[C@H](N)C(=O)O; Nva = CCC[C@H](N)C(=O)O; Cbz = O=C(OCc1ccccc1)*; Boc = CC(C)(C)OC(=O)*; Bn = c1ccc(C*)cc1

For the first experiment, the system named is PC12 cells.
Experiment: not given
Particulars: Tsubuki et al. 1993; cited from earlier work.
As for `CC(C)C[C@@H](C=O)NC(=O)[C@H](CC(C)C)NC(=O)[C@H](CC(C)C)NC(=O)OCc1ccccc1` [Z-Leu-Leu-Leu-H, Z-L-Leucine-L-Leucine-L-Leucinal] (Cbz-Leu-Leu-Leu-aldehyde), the “Optimal concentration for initiating neurite outgrowth” value is 30 nM.

A further experiment deals with chymotrypsin-like activity of the proteasome.
Experiment: not given
Particulars: Orlowski 1990; cited from earlier work.
With `CC(C)C[C@@H](C=O)NC(=O)CNC(=O)CNC(=O)OCc1ccccc1` [Z-Gly-Gly-Leu-H] (Cbz-Gly-Gly-Leu-aldehyde), the “Inhibition of the chymotrypsin-like activity of the proteasome” value is listed as “inhibits the chymotrypsin-like activity of the proteasome”.

The same experiment, now with this note: Vinitsky et al. 1992; slow binding inhibitors; cited from earlier work.
As a reminder, the Ki is the equilibrium dissociation constant of an inhibitor or competing ligand from its target. For `CSCC[C@@H](C=O)NC(=O)[C@H](CC(C)C)NC(=O)[C@H](CC(C)C)NC(C)=O` [Ac-LLM-H, N-acetyl-Leu-Leu-methioninal] (Ac-Leu-Leu-Met-aldehyde), the Ki was 33000 nM.
As to `CC(C)C[C@H](NC(=O)OCc1ccccc1)C(=O)N[C@@H](CC(C)C)C(=O)N[C@H](C=O)Cc1ccccc1` [MG 110, Z-Leu-Leu-Phe-H] (Cbz-Leu-Leu-Phe-aldehyde), the Ki is 460 nM.
Consider `CCOC(=O)C(=O)[C@H](Cc1ccccc1)NC(=O)[C@H](CC(C)C)NC(=O)[C@H](CC(C)C)NC(=O)OCc1ccccc1` [Z-Leu-Leu-Phe-COOEt], for which the Ki is 53000 nM.

The target in a further experiment is T1, 20S proteasome (Oryctolagus cuniculus, UniProt G1T4Q9).
T1 sequence (G1T4Q9 60-263): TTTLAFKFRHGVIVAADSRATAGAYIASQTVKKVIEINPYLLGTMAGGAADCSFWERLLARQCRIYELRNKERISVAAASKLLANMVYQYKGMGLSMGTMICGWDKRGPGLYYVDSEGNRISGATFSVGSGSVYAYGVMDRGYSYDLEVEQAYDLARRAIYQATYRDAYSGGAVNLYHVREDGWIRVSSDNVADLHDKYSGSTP
T1 sequence (G1SU71 1-241 partner): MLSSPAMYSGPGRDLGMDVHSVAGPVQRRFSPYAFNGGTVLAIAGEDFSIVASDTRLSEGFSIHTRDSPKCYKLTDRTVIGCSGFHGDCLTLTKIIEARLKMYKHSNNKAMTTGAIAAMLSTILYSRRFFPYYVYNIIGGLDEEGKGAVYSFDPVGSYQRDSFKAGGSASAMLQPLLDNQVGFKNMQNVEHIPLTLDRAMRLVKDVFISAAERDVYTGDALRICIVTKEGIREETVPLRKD
The experiment in a line: Inhibition of the 20S proteasome peptidase activity (kinetic experiments). It counts as biochemical, Rabbit. To be noted: Rabbit muscle, SDS-activated, substrate Suc-LLVY-AMC; read-out: Ki 20S. The text has this: Tables I-III summarize results from kinetic experiments that measured the inhibition of the 20S and 26S proteasomes, as well as cathepsin B and calpain, enzymes that may also be involved in muscle protein turnover. In these tables, Ki values are reported, which are dissociation constants for the equilibrium that is established when enzyme and inhibitor interact to form the enzyme:inhibitor complex.
The substances and assay conditions are briefly summarized in the footnotes to Table I. MG 101 and MG 102, also known as Calpain Inhibitor I and II, were purchased from Calbiochem as catalogue products.
(^a) Rabbit muscle. SDSactivated. Substrate: SucLLVYAMC.
Turning to `CC(C)C[C@H](NC(=O)OCc1ccccc1)C(=O)N[C@@H](CC(C)C)C(=O)N[C@H](C=O)CC1CCCCC1` [MG 129] (Cbz-Leu-Leu-[Cha]-aldehyde), the Ki stood at 74 nM.
`CC(C)C[C@H](NC(=O)OCc1ccccc1)C(=O)N[C@@H](CC(C)C)C(=O)N[C@H](C=O)Cc1ccc(O)cc1` [MG 131] (Cbz-Leu-Leu-Tyr-aldehyde): the Ki came out at 7 nM.
Same read-out and setting: as for `CC(C)C[C@@H](C=O)NC(=O)[C@H](CC(C)C)NC(=O)[C@H](CC(C)C)NC(=O)OCc1ccccc1` [MG 132] (Cbz-Leu-Leu-Leu-aldehyde), the figure is 4 nM; as for `CCC(C)[C@@H](C=O)NC(=O)[C@H](CC(C)C)NC(=O)[C@H](CC(C)C)NC(=O)OCc1ccccc1` (stereo partly drawn) [MG 134] (Cbz-Leu-Leu-[Ile(3ξ)]-aldehyde), 104 nM.
The same measure, in the same setting: as for `CCC[C@@H](C=O)NC(=O)[C@H](CC(C)C)NC(=O)[C@H](Cc1cccc2ccccc12)NC(=O)OCc1ccccc1` [MG 142] (Cbz-[1Nal]-Leu-[Nva]-aldehyde), the figure is 0.2 nM; as for `CC(C)C[C@H](NC(=O)OCc1ccccc1)C(=O)N[C@@H](CC(C)C)C(=O)N[C@H](C=O)Cc1ccc(OCc2ccccc2)cc1` [MG 153] (Cbz-Leu-Leu-Tyr(Bn)-aldehyde), 285 nM; as for `CC(C)C[C@@H](C=O)NC(=O)[C@H](CC(C)C)NC(=O)[C@H](CC(C)C)NC(=O)OC(C)(C)C` [MG 155] (Boc-Leu-Leu-Leu-aldehyde), 47 nM.
With `CC(C)CC(C=O)NC(=O)C(Cc1ccc2ccccc2c1)NC(=O)OCc1ccccc1` (stereo not drawn) [MG 279, Z-Nal-Leu-H] (Cbz-[2Nal]-Leu-aldehyde; configuration not given here), the Ki was found to be 24 nM.
